Values joined by “and” are separate entries in the source; they are usually repeats but may differ in a detail not shown here. Identical values can stand only once.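 These data come from cells grown in 96-well plates and exposed to compound for 48 hours at five concentrations. Here, GI50 denotes the concentration required for 50% inhibition of growth. The concentration for full growth arrest is given as TGI.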
Legend:
Assay in all cases: DTP human tumour cell line panel, 48 h
NCI-H522 lung = tested on: NCI-H522 lung
DMS 114 small cell lung = tested on: DMS 114 small cell lung
M19-MEL melanoma = tested on: M19-MEL melanoma
DLD-1 colon = tested on: DLD-1 colon
LXFL 529 NSCLC = tested on: LXFL 529 NSCLC
OVCAR-3 ovarian = tested on: OVCAR-3 ovarian
A549 NSCLC = tested on: A549 NSCLC
HOP-18 NSCLC = tested on: HOP-18 NSCLC
DMS 273 small cell lung = tested on: DMS 273 small cell lung
SW-620 colon = tested on: SW-620 colon
EKVX NSCLC = tested on: EKVX NSCLC
SNB-78 CNS = tested on: SNB-78 CNS
NCI/ADR-RES ovarian = tested on: NCI/ADR-RES ovarian

| SMILES | TGI (NCI-H522 lung) | TGI (DMS 114 small cell lung) | TGI (M19-MEL melanoma) | TGI (DLD-1 colon) | TGI (LXFL 529 NSCLC) | TGI (OVCAR-3 ovarian) | TGI (A549 NSCLC) | TGI (HOP-18 NSCLC) | TGI (DMS 273 small cell lung) | TGI (SW-620 colon) | TGI (EKVX NSCLC) | TGI (SNB-78 CNS) | TGI (NCI/ADR-RES ovarian) | GI50 (HOP-18 NSCLC) | GI50 (EKVX NSCLC) |
| --- | --- | --- | --- | --- | --- | --- | --- | --- | --- | --- | --- | --- | --- | --- | --- |
| CC(C)c1cccc(C(C)C)c1NC(=O)C(=O)Cc1nc2ccc([N+](=O)[O-])cc2[nH]c1=O | 54.4 µM | > 100 µM | > 100 µM | > 100 µM | > 100 µM | > 100 µM | > 100 µM | > 100 µM | > 100 µM | > 100 µM | > 100 µM |  |  |  |  |
| COC(=O)C1CC2C=CC=CC(=O)C2(C)C1 (centres undefined) |  | > 100 µM | > 100 µM | 28.9 µM | > 100 µM | > 100 µM | > 100 µM |  |  | 90.1 µM | > 100 µM | > 100 µM |  |  |  |
| CCNC(=O)C(C)C1CCC2(C)C=CC(=O)C(C)=C2C1O (centres undefined) | > 100 µM | > 100 µM | > 100 µM | > 100 µM |  | > 100 µM | > 100 µM | > 100 µM | > 100 µM | > 100 µM | > 100 µM | > 100 µM | > 100 µM |  |  |
| OCC#CCNCl | > 100 µM | > 100 µM | > 100 µM | > 100 µM |  | > 100 µM | > 100 µM | > 100 µM | > 100 µM | > 100 µM | > 100 µM | > 100 µM | > 100 µM |  |  |
| C/C(=C/C(=O)Nc1ccccc1)Nc1onc(C)c1C | > 100 µM | > 100 µM | > 100 µM | > 100 µM |  | > 100 µM | > 100 µM | > 100 µM | > 100 µM | > 100 µM | > 100 µM | > 100 µM | > 100 µM |  |  |
| Cc1cc2ncn(-c3nc4ccccc4nc3C(C#N)S(C)(=O)=O)c2cc1C (centres undefined) | > 100 µM | > 100 µM | > 100 µM | > 100 µM | > 100 µM | > 100 µM | > 100 µM |  | > 100 µM | > 100 µM | > 100 µM | > 100 µM |  |  |  |
| S=c1sc2c(s1)SC(c1ccccc1)CS2 (centres undefined) | > 100 µM | > 100 µM | > 100 µM | > 100 µM |  | > 100 µM | > 100 µM | > 100 µM | > 100 µM | > 100 µM | > 100 µM | > 100 µM | > 100 µM |  |  |
| N#CC(NNC(=O)Cc1ccccc1)c1cccc(O)c1 (centres undefined) | > 100 µM | > 100 µM | > 100 µM | > 100 µM | > 100 µM |  | > 100 µM | > 100 µM | > 100 µM | > 100 µM |  | > 100 µM |  |  |  |
| CC1=C(c2nc3ccccc3s2)C(=O)OC1(C)C | > 100 µM | > 100 µM | > 100 µM | > 100 µM | > 100 µM | > 100 µM | > 100 µM |  | > 100 µM | > 100 µM | > 100 µM | > 100 µM |  |  |  |
| CCCCCCCC/C=C1\CCC(CN(C)C)C1=O (centres undefined) | 13.3 µM | 13.6 µM | 10.5 µM | 4.9 µM | 3.01 µM | 22 µM | 39.9 µM | 33.8 µM | 5.12 µM | 8.69 µM | 21.6 µM | 27.2 µM |  |  |  |
| O=S(O)CCCCCSSc1ccccc1 | 42 µM | 66.6 µM | > 100 µM | > 100 µM | 37.9 µM | > 100 µM |  |  |  |  | > 100 µM | > 100 µM |  |  |  |
| Cc1c(O)c(=O)ccn1CCN | > 100 µM | > 100 µM | > 100 µM | > 100 µM | > 100 µM |  | > 100 µM | > 100 µM | > 100 µM | > 100 µM | > 100 µM | > 100 µM |  |  |  |
| CN(C)CCNc1ccc2ncn3c4ccccc4c(=O)c1c23 | 5.41 µM | 13.7 µM | 12.6 µM | 12.8 µM | 19.2 µM | > 100 µM | 5.79 µM | 33 µM |  | 12.9 µM |  | 19.8 µM |  |  |  |
| N#C/C(=C\c1ccncc1)c1csc2ccccc12 | 41.9 µM |  | > 91.2 µM | 96.9 µM |  | 42.9 µM | > 100 µM | 99.7 µM | 73.6 µM | 67.7 µM | > 100 µM | 73.8 µM | 61.8 µM |  |  |
| O=NN1C(c2ccccc2)CNC(=O)CC1c1ccccc1 (centres undefined) | 46.8 µM | 59.3 µM | > 100 µM | > 100 µM |  | > 92.7 µM | > 100 µM | > 100 µM | > 100 µM | > 100 µM | > 100 µM | > 100 µM | > 64.6 µM |  |  |
| COc1cc2c(c(OC)c1OC)-c1ccc(SC)c(=O)cc1[C@@H](NCc1ccc(F)cc1)CC2 |  |  | 75 µM and 13.3 µM | 75 µM and > 100 µM | 10.1 µM and 18.2 µM | < 0.0075 µM | 75 µM and > 100 µM | 51.3 µM and > 100 µM |  | 18.8 µM and > 100 µM | 75 µM and > 100 µM | 65.6 µM and > 100 µM |  | > 100 µM | < 0.0075 µM |
| C[C@@H](CC(O)C(O)C(C)(C)O)C1CCC23CC12CCC1[C@@]2(C)CCC(O)C(C)(C)C2CC(OC2OC(CO)C(O)C(O)C2O)[C@]13C (some centres undefined) | > 10 µM |  |  |  |  | > 10 µM | > 10 µM |  |  | > 10 µM | > 10 µM |  | > 10 µM |  |  |
| O=C(CNc1ccccn1)Nn1cnc2ccc(S(=O)(=O)Nc3ccccn3)cc2c1=O | > 100 µM |  |  |  |  | > 100 µM | > 100 µM |  |  | > 100 µM | > 100 µM |  | > 100 µM |  |  |

| SMILES | TGI (NCI-H522 lung) | TGI (DMS 114 small cell lung) | TGI (M19-MEL melanoma) | TGI (DLD-1 colon) | TGI (LXFL 529 NSCLC) | TGI (OVCAR-3 ovarian) | TGI (A549 NSCLC) | TGI (HOP-18 NSCLC) | TGI (DMS 273 small cell lung) | TGI (SW-620 colon) | TGI (EKVX NSCLC) | TGI (SNB-78 CNS) | TGI (NCI/ADR-RES ovarian) | GI50 (HOP-18 NSCLC) | GI50 (EKVX NSCLC) |
| --- | --- | --- | --- | --- | --- | --- | --- | --- | --- | --- | --- | --- | --- | --- | --- |
| CC(CSC(=N)N)C(N)=O (centres undefined) | > 100 µM |  |  |  |  | > 100 µM | > 100 µM |  |  | > 100 µM | > 100 µM |  | > 100 µM |  |  |
| COC(=O)C(CC(C)C)NC(=O)C(NC(=O)c1ccc(-c2ccc(Cl)cc2Cl)o1)C(C)C (centres undefined) | 55.5 µM |  |  |  |  | 42.2 µM | > 100 µM |  |  | > 100 µM | 62.6 µM |  | > 100 µM |  |  |
| COc1ccc(C(O)/C(=N/N)c2nc3ccc(Cl)cc3[nH]c2=O)cc1 (centres undefined) | > 100 µM |  |  |  |  | > 100 µM | > 100 µM |  |  | > 100 µM | > 100 µM |  | > 100 µM |  |  |
| O=C1Oc2ccccc2C1C/C(=N\Nc1ccccc1)c1ccccc1O (centres undefined) | 98 µM |  |  |  |  | > 100 µM | > 100 µM |  |  | > 100 µM | > 100 µM |  | 70.9 µM |  |  |
| CCOC1OC(CO)C(O)CC1n1ccc(=O)[nH]c1=O (centres undefined) | > 100 µM |  |  |  |  | > 100 µM | > 100 µM |  |  | > 100 µM | > 100 µM |  | > 100 µM |  |  |
| COc1ccc(/C=c2\c(=O)[nH]c3nc4ccccc4c(=O)n23)cc1 | > 100 µM |  |  |  |  | > 100 µM | > 100 µM |  |  | > 100 µM | > 100 µM |  | > 100 µM |  |  |
| CC(=O)CCCCn1c(=O)c2c(nc(Br)n2C)n(C)c1=O | 24.9 µM |  |  |  |  | > 100 µM | > 100 µM |  |  | > 100 µM | 84.1 µM |  | > 100 µM |  |  |
| CC1=CC2C(C=C1)S(=O)(=O)N1CC21c1ccccc1 (centres undefined) | > 100 µM | > 100 µM | > 100 µM | > 100 µM | > 100 µM | > 100 µM | > 100 µM | > 100 µM | > 100 µM | > 100 µM |  | > 100 µM |  |  |  |
| O=C(Cc1ccccc1)NN1C(=O)C(Cl)C1c1ccccc1Cl (centres undefined) | 28 µM | > 88.4 µM | > 100 µM | > 100 µM | > 100 µM | > 100 µM | > 100 µM | > 100 µM | > 100 µM | > 100 µM | > 100 µM | > 100 µM |  |  |  |
| C[C@]12C=CC(=O)C=C1CC[C@@H]1[C@@H]2CC[C@@]2(C)[C@H]1CC[C@]2(O)C(N)=O | > 100 µM |  |  |  |  | > 100 µM | > 100 µM |  |  | > 100 µM | > 100 µM |  | > 100 µM |  |  |
| O=Cc1c[nH]c2c(=O)[nH]cnc12 | > 100 µM | > 100 µM | > 100 µM | > 100 µM | > 100 µM | > 100 µM | > 100 µM | > 100 µM |  | > 100 µM | > 100 µM | > 100 µM |  |  |  |
| Clc1ccc(Cl)c(N=Nc2cc3c4c(c2)CCN4CCC3)c1 | > 10 µM |  |  |  |  | > 10 µM | > 10 µM |  |  | > 10 µM | > 10 µM |  | > 10 µM |  |  |
| C[N+](C)(CCCCCC[N+](C)(C)CCCN1C(=O)c2cccc3cccc(c23)C1=O)CCCN1C(=O)c2cccc3cccc(c23)C1=O | > 100 µM |  |  |  |  | > 100 µM | > 100 µM |  |  | > 100 µM | > 100 µM |  | > 100 µM |  |  |
| O=C(O)c1nc2ccccc2nc1Nc1ccc(Cl)c(Cl)c1 | 60.1 µM |  |  |  |  | 37.2 µM | > 100 µM |  |  | > 100 µM | > 100 µM |  | > 100 µM |  |  |
| FC(F)(F)c1ccc2c(c1)N(CCCNCCN1CCOCC1)c1ccccc1S2 | 30.6 µM |  | 22.5 µM | 33.7 µM | 25.6 µM | 24.8 µM | 28.3 µM |  | 36.7 µM | 21.9 µM | 29.4 µM | 23.8 µM |  |  |  |
| O[C@]12C=C(c3nccc4c3[nH]c3ccccc34)[C@@H]3CCN(CCCC/C=C\CC1)C[C@@]31CC3/C=C\CCCCN3[C@H]12 (some centres undefined) | 2.21 µM |  |  |  |  | 1.55 µM | 11.2 µM |  |  | 4.65 µM | 3.57 µM |  | 4.16 µM |  |  |
| COc1nc(N=P(c2ccccc2)(c2ccccc2)c2ccccc2)cc(=O)n1C | > 100 µM |  |  |  |  | > 100 µM | > 100 µM |  |  | > 100 µM | > 100 µM |  | > 100 µM |  |  |

From PubChem BioAssay (NCI)
